In patent US20110212933A1, “Antiseptic Compositions for the Treatment of Infections” (priority 2008, published 2011):
“And” between values parts separate entries of the source, which are not always exact repeats. Equal values may be shown once. Read-outs that look alike come from different tables or passages of the source.

Assays:
guinea pigs [1] = settings: 0.4 mL, historical data, cited from earlier work
guinea pigs [2] = assay: Dermal sensitization test in guinea pigs (Buehler)
guinea pigs [3] = settings: Positive Control animals, historical data, cited from earlier work; for Individual Bodyweight Initial: baseline
P. aeruginosa = tested on: P. aeruginosa
Protocol: (§1) Phenol Resistance Control: The phenol resistance of the test organisms were determined per the AOAC method.
(§2) Final phenol dilutions were made the day of use from stock phenol within manufacturer's stability specification.

S. cholerasuis = tested on: S. cholerasuis
Protocol: as §1, §2

S. aureus = tested on: S. aureus
Protocol: as §1, §2

T. mentagrophytes = tested on: T. mentagrophytes
Protocol: Phenol Resistance Control: The phenol resistance of Trichophyton mentagrophytes was determined per the AOAC method. Final phenol dilutions were made the day of use from stock phenol within manufacturer's stability specification.

[4] = historical positive naive control animals, 0.04% in acetone
[5] = Dilution 1:90, Exposure Time 5 Minutes
[6] = Dilution 1:90, Exposure Time 10 Minutes
[7] = Dilution 1:90, Exposure Time 15 Minutes
[8] = Dilution 1:60, Exposure Time 5 Minutes
[9] = Dilution 1:60, Exposure Time 10 Minutes
[10] = Dilution 1:70, Exposure Time 5 Minutes
[11] = Dilution 1:70, Exposure Time 10 Minutes

Compound: O=[N+]([O-])c1ccc(Cl)c([N+](=O)[O-])c1 [DNCB, 1-Chloro-2,4-Dinitrobenzene]
- Preliminary Irritation Testing Score (guinea pigs [1]; Concentration 0.02% w/w in acetone): 0
- Preliminary Irritation Testing Score (guinea pigs [1]; Concentration 0.03% w/w in acetone): 0 and 0.5
- Preliminary Irritation Testing Score (guinea pigs [1]; Concentration 0.04% w/w in acetone): 0 and 0.5
- erythema score, induction phase (guinea pigs [2]; historical positive control animals, 0.08% in 80% aqueous ethanol): 0.5-3
- sites with very faint erythema (0.5) 24 hours after challenge (guinea pigs [2]; [4]): two
- time for irritation to clear from affected sites (guinea pigs [2]; [4]): ≤ 48 h
- Individual Bodyweight Initial (guinea pigs [3]; female guinea pigs): 393 g and 404 g and 415 g and 411 g and 408 g and 428 g and 372 g
- Individual Bodyweight Initial (guinea pigs [3]; male guinea pigs): 406 g (2×) and 379 g and 413 g and 423 g and 408 g and 386 g and 407 g
- Individual Bodyweight Day After Challenge (guinea pigs [3]; female guinea pigs): 568 g and 660 g and 581 g and 536 g and 591 g and 544 g and 609 g
- Individual Bodyweight Day After Challenge (guinea pigs [3]; male guinea pigs): 579 g and 544 g and 600 g and 618 g and 668 g and 551 g and 639 g and 599 g

Compound: Oc1ccccc1 [Phenol, phenol]
- Phenol Resistance, growth in subculture (P. aeruginosa; Dilution 1:80, Exposure Time 5 Minutes): 0
- Phenol Resistance, growth in subculture (P. aeruginosa; Dilution 1:80, Exposure Time 10 Minutes): 0
- Phenol Resistance, growth in subculture (P. aeruginosa; Dilution 1:80, Exposure Time 15 Minutes): 0
- Phenol Resistance, growth in subculture (P. aeruginosa; [5]): +
- Phenol Resistance, growth in subculture (P. aeruginosa; [6]): +
- Phenol Resistance, growth in subculture (P. aeruginosa; [7]): +
- Phenol Resistance, growth in subculture (S. cholerasuis; [5]): +
- Phenol Resistance, growth in subculture (S. cholerasuis; [6]): 0
- Phenol Resistance, growth in subculture (S. cholerasuis; [7]): 0
- Phenol Resistance, growth in subculture (S. cholerasuis; Dilution 1:100, Exposure Time 5 Minutes): +
- Phenol Resistance, growth in subculture (S. cholerasuis; Dilution 1:100, Exposure Time 10 Minutes): +
- Phenol Resistance, growth in subculture (S. cholerasuis; Dilution 1:100, Exposure Time 15 Minutes): 0
- Phenol Resistance, growth in subculture (S. aureus; [8]): +
- Phenol Resistance, growth in subculture (S. aureus; [9]): +
- Phenol Resistance, growth in subculture (S. aureus; Dilution 1:60, Exposure Time 15 Minutes): 0
- Phenol Resistance, growth in subculture (S. aureus; [10]): +
- Phenol Resistance, growth in subculture (S. aureus; [11]): +
- Phenol Resistance, growth in subculture (S. aureus; Dilution 1:70, Exposure Time 15 Minutes): +
- Phenol Resistance, growth in subculture (T. mentagrophytes; [8]): 0
- Phenol Resistance, growth in subculture (T. mentagrophytes; [9]): 0
- Phenol Resistance, growth in subculture (T. mentagrophytes; [10]): +
- Phenol Resistance, growth in subculture (T. mentagrophytes; [11]): +
